The results in this text go back to patent US8383094B2, “Hepatitis C virus inhibitors” (Bristol-Myers Squibb Company, priority 2008, dated 2013).

Usually EC50 stands for the concentration needed to bring the measured effect to its halfway point.

The test system of the first assay is HCV 1b genotype. Kind of assay: HCV Replicon assay (HCV-neo replicon cells, wild-type). Format: cell-based. The following applies: HCV 1b genotype replicon; range class A-D; read-out: 1b EC50 (in μM or range). The protocol: An HCV Replicon assay was utilized in the present disclosure, and was prepared, conducted and validated as described in commonly owned PCT/US2006/022197 and in O′Boyle et. al. Antimicrob Agents Chemother, 2005 April; 49(4):1346-53. Assay methods incorporating luciferase reporters have also been used as described (Apath.com).
HCV-neo replicon cells and replicon cells containing mutations in the NS5A region were used to test the currently described family of compounds. The compounds were determined to have more than 10-fold less inhibitory activity on cells containing mutations than wild-type cells. Thus, the compounds of the present disclosure can be effective in inhibiting the function of the HCV NS5A protein and are understood to be as effective in combinations as previously described in application PCT/US2006/022197 and commonly owned WO/04014852. Further, the compounds of the present disclosure can be effective against the HCV 1b genotype. It should also be understood that the compounds of the present disclosure can inhibit multiple genotypes of HCV. […] In one embodiment, compounds of the present disclosure are inhibitory versus 1a, 1b, 2a, 2b, 3a, 4a, and 5a genotypes.
Background: Replicon systems follow genome replication, usually without infectious particles.
In the case of `CN1Cc2ccccc2C1C(=O)N1CCC[C@H]1C(=O)Nc1ccc(C#Cc2ccc(NC(=O)[C@@H]3CCCN3C(=O)C3c4ccccc4CN3C)cc2)cc1` (stereo partly drawn) [VN39, (2S,2′S)-N,N′-(1,2-ethynediyldi-4,1-phenylene)bis(1-((2-methyl-2,3-dihydro-1H-isoindol-1-yl)carbonyl)-2-pyrrolidinecarboxamide)], the EC50 is 100 to 999 nM.

Staying with this assay, now noted: Hepatitis C virus, HCV 1b genotype replicon; range class A-D; read-out: 1b EC50 (in μM or range).
With `CN(C)[C@@H](Cc1ccccc1)C(=O)N1CCC[C@H]1C(=O)Nc1ccc(C#Cc2ccc(NC(=O)[C@@H]3CCCN3C(=O)[C@H](Cc3ccccc3)N(C)C)cc2)cc1` [VN29, (2S,2′S)-N,N′-(1,2-ethynediyldi-4,1-phenylene)bis(1-((2S)-2-(dimethylamino)-3-phenylpropanoyl)-2-pyrrolidinecarboxamide)], the EC50 lay in the range of 100 to 999 nM.

`O=C(Nc1ccc(C#Cc2ccc(NC(=O)[C@@H]3CCCN3C(=O)OCc3ccccc3)cc2)cc1)[C@H]1CCCO1` [Example D21, Benzyl (2S)-2-((4-((4-(((2R)-tetrahydro-2-furanylcarbonyl)amino)phenyl)ethynyl)phenyl)carbamoyl)-1-pyrrolidinecarboxylate]: the EC50 lay in the range of 100 to 999 nM.

`O=C(CC1CC1)Nc1ccc(C#Cc2ccc(NC(=O)[C@@H]3CCCN3C(=O)OCc3ccccc3)cc2)cc1` [Example D19, Benzyl (2S)-2-((4-((4-((cyclopropylacetyl)amino)phenyl)ethynyl)phenyl)carbamoyl)-1-pyrrolidinecarboxylate]: the EC50 was 100 to 999 nM.

Consider `CCC(O)(C(=O)N1CCC[C@H]1C(=O)Nc1ccc(C#Cc2ccc(NC(=O)[C@@H]3CCCN3C(=O)C(O)(CC)c3ccccc3)cc2)cc1)c1ccccc1` (stereo partly drawn) [VN10, (2S,2′S)-N,N′-(1,2-ethynediyldi-4,1-phenylene)bis(1-(2-hydroxy-2-phenylbutanoyl)-2-pyrrolidinecarboxamide)], for which the 50% effective concentration (EC50) was under 4.57 nM.

As to `O=C(Nc1ccc(C#Cc2ccc(NC(=O)[C@@H]3CCCN3C(=O)C3(c4ccccc4)CCCC3)cc2)cc1)[C@@H]1CCCN1C(=O)C1(c2ccccc2)CCCC1` [VN5, (2S,2′S)-N,N′-(1,2-ethynediyldi-4,1-phenylene)bis(1-((1-phenylcyclopentyl)carbonyl)-2-pyrrolidinecarboxamide)], the EC50 lay within 4.57 to 99 nM.

Regarding `O=C(Nc1ccc(C#Cc2ccc(NC(=O)[C@@H]3CCCN3C(=O)[C@H]3CCCO3)cc2)cc1)[C@H]1CCCO1` [Example D25, 1-((2R)-Tetrahydro-2-furanylcarbonyl)-N-(4-((4-(((2R)-tetrahydro-2-furanylcarbonyl)amino)phenyl)ethynyl)phenyl)-L-prolinamide], the EC50 lay in the range of 1000 to 10000 nM.

As for `O=C(Nc1ccc(C#Cc2ccc(NC(=O)[C@@H]3CCCN3C(=O)Cc3cccnc3)cc2)cc1)[C@@H]1CCCN1C(=O)Cc1cccnc1` [Example D39, (2S,2′S)-N,N′-(1,2-ethynediyldi-4,1-phenylene)bis(1-(3-pyridinylacetyl)-2-pyrrolidinecarboxamide)], the EC50 was under 4.57 nM.

As to `O=C(Nc1ccc(C#Cc2ccc(NC(=O)[C@@H]3CCCN3C(=O)c3nc(Cl)cc4ccccc34)cc2)cc1)[C@@H]1CCCN1C(=O)c1nc(Cl)cc2ccccc12` [Example D31, (2S,2′S)-N,N′-(1,2-ethynediyldi-4,1-phenylene)bis(1-((3-chloro-1-isoquinolinyl)carbonyl)-2-pyrrolidinecarboxamide)], the EC50 lay within 4.57 to 99 nM.

For `O=C(Nc1ccc(C#Cc2ccc(NC(=O)C3CCN(C(=O)OCc4ccccc4)C3)cc2)cc1)C1CCN(C(=O)OCc2ccccc2)C1` (stereo not shown) [Example D5, Dibenzyl3,3′-(1,2-ethynediylbis(4,1-phenylenecarbamoyl))di(1-pyrrolidinecarboxylate)], the EC50 was 1000 to 10000 nM.

Regarding `O=C(Nc1ccc(C#Cc2ccc(NC(=O)[C@@H]3CCCN3C(=O)[C@H]3CCCO3)cc2)cc1)C1CC1` [Example D6, N-(4-((4-((cyclopropylcarbonyl)amino)phenyl)ethynyl)phenyl)-1-((2R)-tetrahydro-2-furanylcarbonyl)-L-prolinamide], the EC50 lay in the range of 100 to 999 nM.

Regarding `CC(=O)N(C)C(C(=O)N1CCC[C@H]1C(=O)Nc1ccc(C#Cc2ccc(NC(=O)[C@@H]3CCCN3C(=O)C(c3ccccc3)N(C)C(C)=O)cc2)cc1)c1ccccc1` (single isomer, unassigned) [VN35], the concentration giving a half-maximal response (EC50) lay in the range of 100 to 999 nM.

Take `CNC(C(=O)N1CCC[C@H]1C(=O)Nc1ccc(C#Cc2ccc(NC(=O)[C@@H]3CCCN3C(=O)C(NC)c3ccccc3)cc2)cc1)c1ccccc1` (stereo partly drawn) [VN30, (2S,2′S)-N,N′-(1,2-ethynediyldi-4,1-phenylene)bis(1-((methylamino)(phenyl)acetyl)-2-pyrrolidinecarboxamide)]: the EC50 is under 4.57 nM.

Turning to `CC[C@H](C(=O)N1CCC[C@H]1C(=O)Nc1ccc(C#Cc2ccc(NC(=O)[C@@H]3CCCN3C(=O)[C@@H](CC)c3ccccc3)cc2)cc1)c1ccccc1` [VN6, (2S,2′S)-N,N′-(1,2-ethynediyldi-4,1-phenylene)bis(1-((2S)-2-phenylbutanoyl)-2-pyrrolidinecarboxamide)], the EC50 lay in the range of 4.57 to 99 nM.

For `CC(=O)N[C@H](C)C(=O)N1CCC[C@H]1C(=O)Nc1ccc(C#Cc2ccc(NC(=O)[C@@H]3CCCN3C(=O)[C@@H](C)NC(C)=O)cc2)cc1` [VN14, (2S,2′S)-N,N′-(1,2-ethynediyldi-4,1-phenylene)bis(1-((2R)-2-acetamidopropanoyl)-2-pyrrolidinecarboxamide)], the EC50 is 4.57 to 99 nM.

On to `CC(C)C(=O)N[C@@H](C(=O)N1CCC[C@H]1C(=O)Nc1ccc(C#Cc2ccc(NC(=O)[C@@H]3CCCN3C(=O)[C@H](NC(=O)C(C)C)c3ccccc3)cc2)cc1)c1ccccc1` [VN25, (2S,2′S)-N,N′-(1,2-ethynediyldi-4,1-phenylene)bis(1-((2R)-2-(isobutyrylamino)-2-phenylacetyl)-2-pyrrolidinecarboxamide)], for which the EC50 was under 4.57 nM.

Regarding `CN(CC(N)=O)C(C(=O)N1CCC[C@H]1C(=O)Nc1ccc(C#Cc2ccc(NC(=O)[C@@H]3CCCN3C(=O)C(c3ccccc3)N(C)CC(N)=O)cc2)cc1)c1ccccc1` (single isomer, unassigned) [VN34], the EC50 is under 4.57 nM.

As to `CC(=O)N1CCC[C@H]1C(=O)Nc1ccc(C#Cc2ccc(NC(=O)[C@@H]3CCCN3C(=O)Cc3cccnc3)nc2)cc1` [Example D57, (2S)-1-Acetyl-N-(4-((6-((((2S)-1-(3-pyridinylacetyl)-2-pyrrolidinyl)carbonyl)amino)-3-pyridinyl)ethynyl)phenyl)-2-pyrrolidinecarboxamide], the EC50 was 1000 to 10000 nM.

Take `CC(C)(C)OC(=O)N[C@H](C(=O)N1CCC[C@H]1C(=O)Nc1ccc(C#Cc2ccc(NC(=O)[C@@H]3CCCN3C(=O)[C@@H](NC(=O)OC(C)(C)C)c3ccccc3)cc2)cc1)c1ccccc1` [VN22, Step a, di-tert-butyl(1,2-ethynediylbis(4,1-phenylenecarbamoyl(2S)-2,1-pyrrolidinediyl((1S)-2-oxo-1-phenyl-2,1-ethanediyl)))biscarbamate]: the EC50 is under 4.57 nM.

In the case of `O=C(Nc1ccc(C#Cc2ccc(NC(=O)[C@@H]3CCCN3C(=O)OCc3ccccc3)cc2)cc1)C1CCC1` [Example D20, Benzyl (2S)-2-((4-((4-((cyclobutylcarbonyl)amino)phenyl)ethynyl)phenyl)carbamoyl)-1-pyrrolidinecarboxylate], the half-maximal effective concentration (EC50) was 100 to 999 nM.

With `CN(C)C1(C(=O)N2CCC[C@H]2C(=O)Nc2ccc(C#Cc3ccc(NC(=O)[C@@H]4CCCN4C(=O)C4(N(C)C)CCc5ccccc54)cc3)cc2)CCc2ccccc21` (stereo partly drawn) [VN41, (2S,2′S)-N,N′-(1,2-ethynediyldi-4,1-phenylene)bis(1-((1-(dimethylamino)-2,3-dihydro-1H-inden-1-yl)carbonyl)-2-pyrrolidinecarboxamide)], the EC50 was under 4.57 nM.

As to `CN[C@H](C(=O)N1CCC[C@H]1C(=O)Nc1ccc(C#Cc2ccc(NC(=O)[C@@H]3CCCN3C(=O)[C@@H](NC)c3ccccc3)cc2)cc1)c1ccccc1` [VN31, (2S,2′S)-N,N′-(1,2-ethynediyldi-4,1-phenylene)bis(1-((2S)-2-(methylamino)-2-phenylacetyl)-2-pyrrolidinecarboxamide)], the EC50 was under 4.57 nM.

Staying with this assay, now noted: Hepatitis C virus, HCV 1b genotype replicon; read-out: 1b EC50 (in μM or range).
Take `CCOC(=O)N[C@@H](C(=O)N1CCC[C@H]1C(=O)Nc1ccc(C#Cc2ccc(NC(=O)[C@@H]3CCCN3C(=O)[C@H](NC(=O)OCC)c3ccccc3)cc2)cc1)c1ccccc1` [VN54, Diethyl (1,2-ethynediylbis(4,1-phenylenecarbamoyl(2S)-2,1-pyrrolidinediyl((1R)-2-oxo-1-phenyl-2,1-ethanediyl)))biscarbamate]: the EC50 stood at 0.018 nM.

For the compound `O=C(Nc1ccc(C#Cc2ccc(NC(=O)[C@@H]3CCCN3C(=O)/C=C/c3ccccc3)cn2)nc1)[C@@H]1CCCN1C(=O)/C=C/c1ccccc1` [Example D53, (2S,2′S)-N,N′-(1,2-ethynediyldi-2,5-pyridinediyl)bis(1-((2E)-3-phenyl-2-propenoyl)-2-pyrrolidinecarboxamide)], the EC50 turned out to be 2730 nM.

Still in this assay, the particulars now being: Hepatitis C virus, read-out: 1b EC50 (in μM or range), HCV 1b genotype replicon; range class A-D.
For the compound `CN1CCN(C(C(=O)N2CCC[C@H]2C(=O)Nc2ccc(C#Cc3ccc(NC(=O)[C@@H]4CCCN4C(=O)C(c4ccccc4)N4CCN(C)CC4)cc3)cc2)c2ccccc2)CC1` (stereo partly drawn) [VA44, (2S,2′S)-N,N′-(1,2-ethynediyldi-4,1-phenylene)bis(1-((4-methyl-1-piperazinyl)(phenyl)acetyl)-2-pyrrolidinecarboxamide)], the EC50 was under 4.57 nM.
